Assay results published in patent US8268961B2, “Antibacterial peptides and analogues thereof” (Universita Degli Studi di Siena, priority 2004, dated 2012).
Like-named read-outs stand apart in the source and are kept apart here. Positions of bridges follow the written chain, without caps; N, C: chain ends. Residues, ends and D or L forms follow the SMILES beside them. Chains are numbered I, II in the order given. No end group written: not given here.

Columns and labels:
[1] = test system: Escherichia coli ATCC 25922; type: cell-based
From the text: (§1) MIC is defined as the lowest concentration, in an antibiotic dilution range, that inhibits visible bacterial growth. The importance of MIC sensitivity test is based on the principle that in vitro sensitivity provides a predictive indication of the in vivo efficacy of the antibiotic therapy. Values are expressed as molar concentration and compared to MIC values obtained with commercially available antibiotics such as amikacin, ceftriaxone and levofloxacin (Table 3).
(§2) Reference strains (Escherichia coli ATCC 25922, Pseudomonas aeruginosa ATCC 27853, Staphylococus aureus ATCC 25923 and Chryseobacterium meningosepticum CCUG 4310) and several recent clinical isolates (including multidrug-resistant ones) of various species (Table 2) were used for conventional susceptibility testing experiments. Minimum Inhibitory Concentration (MIC) was determined by a standard microdilution assay as recommended by the National Commitee for Clinical Laboratory Standards (NCCLS) using cation-supplemented Mueller-Hinton (MH) broth (Oxoid Ltd. Basingstoke, UK) and a bacterial inoculum of 5×10^4 CFU per well, in a final volume of 100 μl. Results were recorded by visual inspection after 24 h of incubation at 37° C.

[2] = test system: Pseudomonas aeruginosa ATCC27853; type: cell-based
From the text: as §1, §2

[3] = test system: Staphylococcus aureus ATCC 25923; type: cell-based; details: Staphylococcus aureus ATCC 25923, reference strain
From the text: as §1, §2

E. coli strain TG1 = assay: Test of antibacterial activity (colony growth inhibition) on E. coli strain TG1; type: cell-based; details: E. coli TG1, colony counting vs control without peptide
Protocol: The antimicrobic activity of the peptides in linear form (L1, L4, L5, L6) and in MAP form (M1, M4, M5, M6) was assayed on the TG1 strain of E. coli. The peptides were incubated at various concentrations (2-1-0.5-0.25-0.12 mg/ml) with cells of E. coli (OD600=0.2) for about 1 hour at 37° C. Subsequently, the cells were plated on agar at dilution such to allow counting of individual colonies. The antimicrobic activity of the synthesised peptide L 1 and M1 is shown FIG. 1 and is compared to a non correlated MAP peptide (MNC) used as negative control.
In one example, the tetrabranched MAP peptides with the amino acid sequence: QAKIRVRLSA [SEQ ID NO: 2], KIRVRLSA [SEQ ID NO: 3], QKKIRVRLSA [SEQ ID NO: 4] are used individually in a bacterial colony growth inhibition test. The test is conducted by incubating different concentrations of MAP peptides with E. coli (strain TG1) and plating bacterial cells on agar at a dilution such to allow for individual colonies counting. The following day, the number of colonies grown after treatment with the three MAP peptides is compared.
Antimicrobic tests were conducted incubating for 75 min at 37° C., 25 μL of E. coli at the OD600 of 0.2 with 25 μl of MAP peptide dissolved in PBS at the various concentrations. The different incubations were further diluted 1:1000 in 2×TY medium and 100 μl were plated on solid 2×TY medium. The plates were left overnight at 30° C. and the individual grown colonies were counted and compared with a control, not treated with MAP peptide.

[4] = Stability to plasmatic protease (HPLC); type: in vitro ADME, human
Protocol: Since the use of peptides as therapeutic agents is severely limited by their in vivo half-life, the stability to human serum protease of the linear peptide L1 and of the MAP peptides M1, M4, M5 and M6 was evaluated. The peptides were incubated at the concentration of 10 mM with plasma and with human serum for 2 and 24 hours; the samples were subsequently analysed in HPLC on column C18 (see materials and methods) to evaluate the presence of linear and MAP peptide not digested by the protease.
The various peptides in MAP form and the linear peptide (L1) were dissolved in H2O at the concentration of 10 mM and incubated with 10 μl of plasma and human serum for 2 and 24 hours at 37° C. To each sample were added 150 μl of methanol to block the proteolytic reaction; each sample was then centrifuged at 13,000 rpm for 2 min and to the supernatant were added 0.75 ml of 0.1% trifluoroacetic acid. The samples were analysed in reverse phase HPLC on a Vydac C18 semi-preparative column using a 30 min gradient of buffer B from 20% to 95% (buffer A: 0.1% trifluoroacetic acid/water; buffer B: 0.1% trifluoroacetic acid/methanol), to evaluate the presence of linear and MAP peptide after the proteolytic treatment.

[5] = test system: E. coli plasmid vector pCEP4 DNA; assay: DNA binding assay (gel retardation); details: 200 ng pCEP4, 1% agarose gel, 1 h room temperature
Protocol: In an attempt to clarify the molecular mechanism of action, the authors examined the binding properties on DNA exerted by M6 dendrimeric peptide and magainin 2, an antimicrobial peptide which has a pore-forming activity on the cell membrane. The DNA binding abilities of M6 and magainin 2 were examined by analyzing the electrophoretic mobility of DNA bands at the various weight ratios of peptides to DNA on a 1% (w/v) agarose gel.
Gel-retardation experiments were performed by mixing 200 ng of the E. coli plasmid vector pCEP4 (Invitrogen) with increasing amounts of M6 peptide in 20 μl of binding buffer (5% glycerol, 10 mM Tris-HCl (pH 8.0), 1 mM EDTA, 1 mM DTT, 20 mM KCl and 50 μg/ml BSA). The reaction mixtures were incubated at room temperature for 1 h. Subsequently, 4 μl of native loading buffer was added (40% saccarose, 0.25% bromophenol blue) and an aliquot of 12 μl was applied to a 1% agarose gel electrophoresis in 1 mM Tris borate-EDTA buffer.

[6] = Escherichia coli ATCC 25922, reference strain
[7] = Pseudomonas aeruginosa ATCC27853, reference strain

Row | Compound | MIC (Molarity) [1, 6] [µM] | MIC (Molarity) [2, 7] [µM] | MIC (Molarity) [3] [µM] | MIC (Molarity) ([1]; ATCC 25922) [µM] | MIC (Molarity) ([2]; ATCC27853) [µM] | further results
1 | NCC[C@H](O)C(=O)N[C@@H]1C[C@H](N)[C@@H](O[C@H]2O[C@H](CN)[C@@H](O)[C@H](O)[C@H]2O)[C@H](O)[C@H]1O[C@H]1O[C@H](CO)[C@@H](O)[C@H](N)[C@H]1O [AMIKACIN, amikacin, reference compound] | 1.7 to 6.8 | 1.7 to 6.8 | 0.85 to 6.8 |  |  | 
2 | CO/N=C(\C(=O)N[C@@H]1C(=O)N2C(C(=O)O)=C(CSc3nc(=O)c(=O)[nH]n3C)CS[C@H]12)c1csc(N)n1 [CEFTRIAXONE, ceftriaxone, reference compound] | 14 to 110 | 1.7 to 14 | 0.054 to 0.21 |  |  | 
3 | CC[C@H](C)[C@H](NC(=O)[C@H](CCCCN)NC(=O)[C@H](CCC(=O)O)NC(=O)[C@@H](N)CCC(N)=O)C(=O)N[C@@H](CCCNC(=N)N)C(=O)N[C@H](C(=O)N[C@@H](CCCNC(=N)N)C(=O)N[C@@H](CC(C)C)C(=O)N[C@@H](CO)C(=O)N[C@@H](C)C(N)=O)C(C)C [L1, QEKIRVRLSA] (H-QEKIRVRLSA-NH2; N-terminus assumed) |  |  |  |  |  | Antibacterial activity on E. coli TG1 colony growth (E. coli strain TG1): inhibited significantly; Resistance to plasmatic protease: Plasma 2 h [4]: +; Resistance to plasmatic protease: Plasma 24 h [4]: −
4 | C[C@H]1COc2c(N3CCN(C)CC3)c(F)cc3c(=O)c(C(=O)O)cn1c23 [LEVOFLOXACIN, levofloxacin, reference compound] | 1.3 to 11 | 0.16 to 1.3 | 0.022 to 16 |  |  | 
5 | I: AKKIRVRLSAKKA-OH / II: AKKIRVRLSAK / III: AKKIRVRLSA / IV: AKKIRVRLSA (amide I:11-IV:C, I:12-II:C, II:11-III:C) [M31] |  |  | >12 | 3 | 3 | 
6 | I: QKAIRVRLSAKKA-OH / II: QKAIRVRLSAK / III: QKAIRVRLSA / IV: QKAIRVRLSA (amide I:11-IV:C, I:12-II:C, II:11-III:C) [M33, QKAIRVRLSA] | 1.5 | 1.5 | >12 |  |  | 
7 | I: QKKARVRLSAKKA-OH / II: QKKARVRLSAK / III: QKKARVRLSA / IV: QKKARVRLSA (amide I:11-IV:C, I:12-II:C, II:11-III:C) [M34, QKKARVRLSA] | >12 |  | >12 |  | 12 | 
8 | I: QKKIAVRLSAKKA-OH / II: QKKIAVRLSAK / III: QKKIAVRLSA / IV: QKKIAVRLSA (amide I:11-IV:C, I:12-II:C, II:11-III:C) [M35, QKKIAVRLSA] |  |  | >12 | 6 | 1.5 | 
9 | I: QKKIRVALSAKKA-OH / II: QKKIRVALSAK / III: QKKIRVALSA / IV: QKKIRVALSA (amide I:11-IV:C, I:12-II:C, II:11-III:C) [M37] |  |  | >12 | 3 | 3 | 
10 | I: QKKIRVRLAAKKA-OH / II: QKKIRVRLAAK / III: QKKIRVRLAA / IV: QKKIRVRLAA (amide I:11-IV:C, I:12-II:C, II:11-III:C) [M39, QKKIRVRLAA] |  |  | >12 | 3 | 3 | 
11 | I: QKRIRVRLSAKKA-OH / II: QKRIRVRLSAK / III: QKRIRVRLSA / IV: QKRIRVRLSA (amide I:11-IV:C, I:12-II:C, II:11-III:C) [M29, QKRIRVRLSA] |  |  | >12 | 6 | 6 | 
12 | I: QRKIRVRLSAKKA-OH / II: QRKIRVRLSAK / III: QRKIRVRLSA / IV: QRKIRVRLSA (amide I:11-IV:C, I:12-II:C, II:11-III:C) [M28] | 0.38 | 0.76 | >12 |  |  | 
13 | I: QRRIRVRLSAKKA-OH / II: QRRIRVRLSAK / III: QRRIRVRLSA / IV: QRRIRVRLSA (amide I:11-IV:C, I:12-II:C, II:11-III:C) [M30, QRRIRVRLSA] |  |  | >12 | 3 | 12 | 
14 | QKKIRARLSA [M36] | >12 | >12 | >12 |  |  | 
15 | QKKIRVRASA [M38] | >12 | >12 | >12 |  |  | 
16 | magainin 2 [reference compound] |  |  |  |  |  | Weight ratio of peptide to DNA at which migration of DNA is inhibited [5]: 5
